According to US20260070921A1, “COMPOUND, ENDOPLASMIC RETICULUM STRESS INHIBITOR, PHARMACEUTICAL PRODUCT, OPHTHALMIC AGENT, EYE DROPS, COMPOSITION, AND METHOD FOR PRODUCING COMPOUND” (KYOTO UNIVERSITY, priority 2022, published 2026):

Key:
[1] = test system: HEK293 cells; experiment: Tunicamycin assay (cell viability under ER stress, WST-8); format: cell-based; design: key to Efficacy 5 μM (ER stress inhibition activity) / Efficacy 25 μM (ER stress inhibition activity) / Efficacy 100 μM (ER stress inhibition activity): “−” indicates no activity; “+” indicates weak activity; “++” indicates strong activity; conditions: for Efficacy 5 μM (ER stress inhibition activity): compound 5 μM 12 to 18 h; for Efficacy 5 μM (ER stress inhibition activity) / Efficacy 25 μM (ER stress inhibition activity) / Efficacy 100 μM (ER stress inhibition activity): then tunicamycin 5 μg/mL 48 h; for Efficacy 25 μM (ER stress inhibition activity): compound 25 μM 12 to 18 h; for Efficacy 100 μM (ER stress inhibition activity): compound 100 μM 12 to 18 h
Protocol: HEK293 cells were seeded in 96-well plates ([…]) and incubated at 37° C. for 2 hours. The medium was then replaced with 100 μL of DMEM ([…]) containing self-assembling chemicals (20 or more compounds, including compounds of the present disclosure) and 1% DMSO. After incubation with any one of compounds 1 to 6 at a given concentration for 12 to 18 hours, HEK293 cells were treated with tunicamycin (5 μg/mL) or thapsigargin (10 μM) for 48 hours, and cell viability was measured using a WST-8 cell counting kit (Dojindo Laboratories).
Produced compounds XD8 to XD28 were subjected to a tunicamycin assay in the same manner as in Examples 1 to 9. Specifically, HEK293 cells were first seeded in a 96-well plate (1×10^4 cells/well) and incubated at 37° C. for 2 hours. The medium was then replaced with 100 μL of DMEM (10% FBS) containing a self-assembling chemical (each of compounds XD8 to XD28) and […]. After incubation with any of compounds XD8 to XD28 at a concentration of 5.0 μM, 25 μM, or 100 μM for 12 to 18 hours, HEK293 cells were treated with tunicamycin (5 μg/mL) for 48 hours, followed by measuring cell viability by using a WST-8 cell counting kit (Dojindo Laboratories).

[2] = test system: HEK293 cells; experiment: Flow cytometry of intracellular assemblies of compound 1 with endocytosis inhibitors; format: cell-based; conditions: compound 1 100 μM; chloroquine 100 μM, chlorpromazine 20 μM; 16 h
Protocol: HEK293 cells were seeded in 12-well plates at 3×10^5 cells/well. After 2 hours of incubation at 37° C., cells were treated with compound 1 (100 μM) and 9-(2,2-dicyanovinyl)julolidine (DCVJ, 1.0 μM) in the presence or absence of chloroquine (100 μM), chlorpromazine (20 μM), and genistein ([…]) in DMEM (10% FBS) at 37° C. for 16 hours. Cells were harvested by incubation in 2 mM EDTA/PBS (pH of 7.4) for 10 minutes. Fluorescence of the cells was measured using a BD FACSAria II and analyzed with BD FACSDiva software.

[3] = Dynamic light scattering (DLS) of self-assemblies; format: physicochemical
Text: In the graphs on the left, the vertical axis “Z-ave. (nm)” represents the average particle size. In the graphs on the right, the vertical axis “Derived Count Rate (kcps)” represents the derived count rate. The horizontal axis represents the molar concentration (PM) of PBS (pH of 7.4) and DMEM (10% FBS). Error bars represent s.d. (n=3).
“Z-ave.” represents the average size of particles. Error bars represent s.d. (n=3).
“Z-average” represents the average size of particles. Error bars represent s.d. (n=3).

[4] = test system: HEK293 cells; experiment: Cell viability assay without ER stress inducer (cytotoxicity, WST-8); format: cell-based; conditions: 64 h
Protocol: HEK293 cells were treated with compound 1, compound 4, compound 5, or compound 6 (25 μM or 100 μM, respectively) for 64 hours. The vertical axis represents relative cell viability (unit: %), and the horizontal axis represents concentration (unit: μM). Cell viability was measured using a WST-8 cell counting kit. Error bars represent s.d. (n=3).
(§1) FIG. 31 is a graph showing the results of a cell viability assay using bafilomycin A1. HEK293 cells were treated with bafilomycin A1 in DMEM (10% FBS) for 48 hours. The vertical axis represents relative cell viability (unit: %), and the horizontal axis represents the concentration of bafilomycin A1 (unit: μM). Cell viability was measured using a WST-8 cell counting kit. Error bars represent s.d. (n=3).
as §1, with “32” for “31”, “MG132.” for “bafilomycin A1.”, “MG132” for “bafilomycin A1”, “t),” for “%),”
The term “Efficacy” denotes ER (endoplasmic reticulum) stress inhibition activity. The term “Toxicity” denotes cytotoxicity. In the ER stress inhibition activity (Efficacy), “−” indicates no activity, “+” indicates weak activity, and “++” indicates strong activity. In addition, “XD7” in Table 1 below represents compound 6. That is, XD7 and compound 6 are the same compound.

[5] = test system: HEK293 cells; experiment: Fluorescence imaging of self-assemblies in living cells (DCVJ); format: cell-based; conditions: 100 μM, DCVJ 1.0 μM, 8 h
Protocol: HEK293 cells were incubated with compound 1, 4, 5, or 6 (25 or 100 μM) in the presence of 1.0 μM DCVJ in DMEM (10% FBS). Fluorescence and bright-field images were taken with a CV1000 confocal microscope equipped with a 40× objective lens (Yokogawa Electric Corporation).
The ability of compound 1 and its derivatives, compounds 4 to 6, to form assemblies was also monitored in living cells. […] HEK293 cells were treated with compound 1, 4, 5, or 6 (25 μM or 100 μM) and 1.0 μM of DCVJ for 8 hours. Fluorescence and bright-field images were taken with a CV1000 confocal microscope. HEK293 cells were treated with compound 1, 4, 5, or 6 (25 or 100 μM) and DCVJ (1.0 μM) for 8 hours and observed with a confocal microscope. […] The self-assembling ability of the molecules of compound 6 may be due to its cellular activity at that concentration, even at 25 μM. […] To further support the importance of self-organization formation in cellular activity, dose-response curves for compounds 1 and 6 were determined. The biological activity of the compounds' molecular assembly is expected to be more cooperative than that of the monomer and to show a steeper dose-response curve (Reference Material 18 below). […] Compound 6 is referred to as “selfonamide” below. […] P. A High-Throughput Screen for Aggregation-Based Inhibition in a Large Compound Library. J Med Chem 2007, 50 (10), 2385-2390. https://doi.org/10.1021/jm061317y.

[6] = even at higher concentrations, tunicamycin 5.0 μg/mL 48 h

Row | SMILES | Efficacy 5 μM (ER stress inhibition activity) [1] | Efficacy 25 μM (ER stress inhibition activity) [1] | Efficacy 100 μM (ER stress inhibition activity) [1] | other results
1 | O=C(O)CCCc1ccccc1 [PBA, reference compound] |  |  |  | Rescue from tunicamycin-induced cell death (secondary screen) [1, 6]: little effect; EC50 ([1]; tunicamycin 5.0 μg/mL 48 h, read-out: EC50 (dose-response curve, Hill equation)): 483 µM
2 | NS(=O)(=O)c1ccc(Nc2ccnc(N(C(=O)c3sc4cc(F)ccc4c3Cl)C(=O)c3sc4cc(F)ccc4c3Cl)n2)cc1 [TD-4C8] |  |  |  | Rescue from tunicamycin-induced cell death (secondary screen) ([1]; compound 50 μM, tunicamycin 5.0 μg/mL 48 h): significantly rescued cells from tunicamycin-induced cell death
3 | C[C@H](CCC(=O)NCCS(=O)(=O)O)[C@H]1CC[C@H]2[C@@H]3[C@@H](O)C[C@@H]4C[C@H](O)CC[C@]4(C)[C@H]3CC[C@]12C [TUDCA, reference compound] |  |  |  | Rescue from tunicamycin-induced cell death (secondary screen) [1, 6]: little effect
4 | NS(=O)(=O)c1ccc(Nc2ccn3c(n2)nc(=O)c2sc4cc(Cl)ccc4c23)cc1 [XD8] | − | + | ++ | 
5 | NS(=O)(=O)c1ccc(Nc2ccn3c(n2)nc(=O)c2sc4cc([N+](=O)[O-])ccc4c23)cc1 [XD9] | − | ++ | + | 
6 | NS(=O)(=O)c1ccc(Nc2ccn3c(n2)nc(=O)c2sc4cc5c(cc4c23)OCO5)cc1 [XD10] | − | − | − | 
7 | COc1cc2sc3c(=O)nc4nc(Nc5ccc(S(N)(=O)=O)cc5)ccn4c3c2cc1OC [XD11] | − | − | ++ | 
8 | NS(=O)(=O)c1ccc(Nc2ccn3c(n2)nc(=O)c2sc4cc(Br)ccc4c23)cc1 [XD12] | − | + | ++ | 
9 | NS(=O)(=O)c1ccc(Nc2ccn3c(n2)nc(=O)c2sc4cc(F)c(F)cc4c23)cc1 [XD13] | − | ++ | ++ | 
10 | CCOc1ccc2c(c1)sc1c(=O)nc3nc(Nc4ccc(S(N)(=O)=O)cc4)ccn3c12 [XD14] | − | − | − | 
11 | CCCOc1ccc2c(c1)sc1c(=O)nc3nc(Nc4ccc(S(N)(=O)=O)cc4)ccn3c12 [XD15] | − | − | − | 
12 | CCCCOc1ccc2c(c1)sc1c(=O)nc3nc(Nc4ccc(S(N)(=O)=O)cc4)ccn3c12 [XD16] | − | − | − | 
13 | CCCCCCOc1ccc2c(c1)sc1c(=O)nc3nc(Nc4ccc(S(N)(=O)=O)cc4)ccn3c12 [XD17] | − | − | + | 
14 | NS(=O)(=O)c1ccc(Nc2ccn3c(n2)nc(=O)c2sc4cc(OCc5ccccc5)ccc4c23)cc1 [XD18] | − | − | − | 
15 | N=C(N)NS(=O)(=O)c1ccc(Nc2ccn3c(n2)nc(=O)c2sc4cc([N+](=O)[O-])ccc4c23)cc1 [XD20] |  |  | + | 
16 | COc1ccc2c(c1)sc1c(=O)nc3nc(Nc4ccc(S(=O)(=O)NC(=N)N)cc4)ccn3c12 [XD21] |  | ++ | ++ | 
17 | CCCOc1ccc2c(c1)sc1c(=O)nc3nc(Nc4ccc(S(=O)(=O)NC(=N)N)cc4)ccn3c12 [XD25] |  | ++ | + | 
18 | CCCCOc1ccc2c(c1)sc1c(=O)nc3nc(Nc4ccc(S(=O)(=O)NC(=N)N)cc4)ccn3c12 [XD26] |  | + | ++ | 
19 | N=C(N)NS(=O)(=O)c1ccc(Nc2ccn3c(n2)nc(=O)c2sc4cc(OCc5ccccc5)ccc4c23)cc1 [XD28] |  |  | ++ | 
20 | CCN(CC)CCCC(C)Nc1ccnc2cc(Cl)ccc12 (centres unmarked) [chloroquine] |  |  |  | Reduction of average DCVJ signal (intracellular assemblies of compound 1) [2]: about 30%
21 | CN(C)CCCN1c2ccccc2Sc2ccc(Cl)cc21 [chlorpromazine] |  |  |  | Reduction of average DCVJ signal (intracellular assemblies of compound 1) [2]: about 30%
22 | O=c1nc2nc(Nc3ccccc3)ccn2c2c1sc1cc(F)ccc12 [compound 2] |  |  |  | Ability to rescue cells from tunicamycin-induced ER stress ([1]; tunicamycin 5.0 μg/mL 48 h): eliminated the ability of the compounds to rescue cells; Self-assembly activity (self-assembling ability) [3]: confirmed to have self-assembly activity
23 | CS(=O)(=O)c1ccc(Nc2ccn3c(n2)nc(=O)c2sc4cc(F)ccc4c23)cc1 [compound 3] |  |  |  | Ability to rescue cells from tunicamycin-induced ER stress ([1]; tunicamycin 5.0 μg/mL 48 h): eliminated the ability of the compounds to rescue cells; Self-assembly activity (self-assembling ability) [3]: confirmed to have self-assembly activity
24 | NS(=O)(=O)c1ccc(Nc2ccn3c(n2)nc(=O)c2sc4ccccc4c23)cc1 [compound 4] |  |  |  | Cytotoxicity ([4]; up to 100 μM): no obvious cytotoxicity
25 | Cc1ccc2c(c1)sc1c(=O)nc3nc(Nc4ccc(S(N)(=O)=O)cc4)ccn3c12 [compound 5] |  |  |  | Ability to rescue cells from tunicamycin-induced ER stress ([1]; tunicamycin 5.0 μg/mL 48 h): lost activity; Cytotoxicity ([4]; at 25 μM): no obvious cytotoxicity; Cytotoxicity ([4]; at 100 μM): slightly reduced cell viability; Size of assemblies/particles in living-cell imaging [5]: 5 µm
